According to patent US20240099951A1, “HAIR GROWTH STIMULANT” (ADJUVANT HOLDINGS CO., LTD., priority 2020, published 2024):

Tested on: skin samples derived from C57BL/6N mouse dorsal body hair skin grafted onto Balb/c nu/nu mice
Assay: Evaluation of hair growth activity: drug applied on skin samples transplanted in mice
Assay type: in vivo
Description: C57BL/6N mice (male) and Balb/c nu/nu mice (female) were purchased from Japan SLC, Inc. (Japan) and bred, and were thereafter made available for the following testing. Note that the testing and breeding of animals complied with pertinent laws, regulations, ordinances, and guidelines, and was performed with the approval of the Experimental Ethics Review Board of the Institute of Physical and Chemical Research. The following reagents were respectively prepared. • Comparative Example 1: 60% aqueous ethanol solution • Comparative Example 2: 5% minoxidil solution • Comparative Example 3: 3% minoxidil solution • Comparative Example 4: 1% minoxidil solution • Working Example 1: 3% phytosphingosine solution • Working Example 2: 1% phytosphingosine solution To collect dorsal body hair skin in the form of anagen stage VI skin 12 to 14 days following depilation, C57BL/6N mice of age 7 to 8 weeks were depilated at locations where dorsal body hair skin was intended to be collected, and were bred for 12 to 14 days. The depilated C57BL/6N mice were thereafter euthanized by cervical dislocation, following which a suitable amount of dorsal body hair skin was collected from the locations at which dorsal body hair skin was intended to be collected. The collected skin was immersed in DMEM culture medium (hereinafter “DMEM 10”) which contained 10 mM HEPES, 10% fetal bovine serum, and 1% penicillin/streptomycin solution. The collected dorsal body hair skin was grasped with bent-nose curved tweezers and was treated by immersion for 10 seconds in a sterilizing solution. Sterilization treatment was performed by carrying out treatment with 7% povidone iodine solution two times, treatment with PBS (−) three times, and treatment with DMEM 10 two times, in this order, with fresh solutions respectively being used each time. Following sterilization treatment, these were immersed in clean DMEM 10. Following sterilization treatment, the dorsal body hair skin was cut into pieces and formed into blocks. The transparent connective tissue which adhered to the cutaneous muscle layer of the skin was excised therefrom using curved scissors, and hair groups were cut into rectangular strips in parallel fashion with respect to the direction of the wave of the hair. At this time, these were cut into blocks such that there were 6 rows of hair follicles along the long axis, adjustment having been carried out so that there were 5 rows of hair follicles along the short axis. The skin samples derived from dorsal body hair skin that were prepared in accordance with the foregoing were grafted onto Balb/c nu/nu mice of age 4 to 6 weeks. More specifically, mice were anesthetized in the usual way using isoflurane gas. The dorsal area of the mice was then disinfected using 7% povidone iodine solution, following which the mice were made to assume a naturally recumbent posture. In addition, a Mani ophthalmic knife (Mani, Inc.; Japan) was used to pierce the skin at the dorsal area of the mice, the grafts which were formed extending from the epidermal layer of the skin to the subdermal layer. The skin samples derived from dorsal body hair skin were inserted into the grafts formed thereat in such fashion as to cause the hair groups to be directed toward the body surface side of the grafts. Skin sample transplanted depth was adjusted so as to cause the top portion of the hair group to be in a state such that it was exposed at the top portion of the graft. To protect the grafts, Nurseban (registered trademark) (Sunplanet Co., Ltd.; Japan) and surgical tape (3M Japan Limited; Japan) were then used as protective tape to cover the grafts at which the skin samples derived from dorsal body hair skin had been transplanted. The protective tape was removed 5 to 7 days following transplantation, and survival of the transplanted skin samples derived from dorsal body hair skin was determined by visual inspection or digital microscopy (Keyence Corporation; Japan), after which follow-up observation was carried out. […]

[1] = 1% phytosphingosine solution (Working Example 2), second hair cycle
[2] = 1% phytosphingosine solution (Working Example 2), third hair cycle
[3] = 1% phytosphingosine solution, second hair cycle vs first hair cycle
[4] = 1% phytosphingosine solution, third hair cycle vs first hair cycle
[5] = 3% phytosphingosine solution (Working Example 1), second hair cycle
[6] = 3% phytosphingosine solution (Working Example 1), third hair cycle
[7] = 3% phytosphingosine solution, second hair cycle vs first hair cycle
[8] = 3% phytosphingosine solution, third hair cycle vs first hair cycle
[9] = solution containing 1% phytosphingosine
[10] = solution containing 3% phytosphingosine

## CCCCCCCCCCCCCC[C@@H](O)[C@@H](O)[C@@H](N)CO [phytosphingosine]
[1]
  Hair shaft elongation rate: 0.48 ± 0.03 mm/day
  Maximum hair shaft length: 5.1 ± 0.2 mm
[2]
  Hair shaft elongation rate: 0.45 ± 0.02 mm/day
  Maximum hair shaft length: 4.7 ± 0.1 mm
[3]
  Hair shaft elongation rate, percent change relative to reference data: 129.73%
  Maximum hair shaft length, percent change relative to reference data: 113.33%
[4]
  Hair shaft elongation rate, percent change relative to reference data: 121.62%
  Maximum hair shaft length, percent change relative to reference data: 104.44%
[5]
  Hair shaft elongation rate: 0.46 ± 0.03 mm/day
  Maximum hair shaft length: 5.4 ± 0.1 mm
[6]
  Hair shaft elongation rate: 0.43 ± 0.05 mm/day
  Maximum hair shaft length: 5.1 ± 0.3 mm
[7]
  Hair shaft elongation rate, percent change relative to reference data: 109.52%
  Maximum hair shaft length, percent change relative to reference data: 122.73%
[8]
  Hair shaft elongation rate, percent change relative to reference data: 102.38%
  Maximum hair shaft length, percent change relative to reference data: 115.91%
[9]
  hair growth activity: exhibit hair growth activity
  hair shaft elongation rate as compared with reference data: significant improvement
Solution containing 1% phytosphingosine, third hair cycle
  maximum hair shaft length as compared with reference data: no significant difference
[10]
  hair growth activity: exhibit hair growth activity
  hair shaft elongation rate as compared with reference data: no significant difference
  maximum hair shaft length as compared with reference data: significant improvement
